Source: article PMC8949187, “Study of Structure–Activity Relationships of the Marine Alkaloid Fascaplysin and Its Derivatives as Potent Anticancer Agents” (Marine Drugs, 2022)

Legend:
22Rv1 cells [1] = assay: DNA fragmentation (apoptosis, sub-G1), flow cytometry with PI staining; assay type: cell-based, human; conditions: treated at IC50 (MTT assay) for 48 h, mean ± SD
Protocol: (§1) The effects on cell cycle progression and DNA fragmentation were analyzed by flow cytometry using PI staining, as described before. Cells (2 × 10^5 cells/well) were pre-incubated overnight in 6-well plates and then treated with the investigated drugs in fresh culture media (2 mL/well) for 48 h. Cells were harvested by trypsinization, fixed in 70% EtOH, stained with PI solution and analyzed by FACS Calibur (BD Bioscience, San Jose, CA, USA). The results were quantified using BD Bioscience Cell Quest Pro v.5.2.1. software (BD Bioscience). The cells appearing as a sub-G1 population (containing fragmented DNA) were considered to be apoptotic.

PNT2 cells = assay: MTT assay, PNT2 cells; assay type: cell-based, human; conditions: Homo sapiens, PNT2; non-cancer cells; 48 h of treatment; mean ± SD
Protocol: (§2) The human prostate cancer cell lines PC-3, DU145, 22Rv1 and LNCaP, as well as human prostate non-cancer cell line PNT2 were purchased from ATCC (Manassas, VA, USA). HEK 293T (human embryonic kidney cells) and MRC-9 (human fibroblast cells) cell lines were purchased from ECACC (Salisbury, UK). […] Authentication of all cell lines used was recently performed by a commercial service (Multiplexion GmbH, Heidelberg, Germany).
(§3) Cells were cultured as monolayers at 37 °C in a humidified atmosphere with 5% (v/v) CO2 in the correspondent culture medium: 10% FBS/RPMI medium (RPMI medium supplemented with Glutamax^TM-I (gibco® Life technologies^TM, Paisley, UK) containing 10% fetal bovine serum (FBS, gibco® Life technologies^TM) and 1% penicillin/streptomycin (Invitrogen)) for PNT2, LNCaP, 22Rv1, PC-3 and DU145 and cells; 10% FBS/DMEM medium (DMEM medium supplemented with Glutamax^TM-I (gibco® Life technologies^TM) containing 10% FBS and 1% penicillin/streptomycin (gibco® Life technologies^TM)) for MRC-9 and HEK 293 cells. Cells were continuously kept in culture for a maximum of 3 months, and were regularly checked for stable phenotype and mycoplasma infection.
(§4) Effect of the drugs on cell viability in terms of metabolic activity was assessed by MTT assay, as previously reported. Cells were pre-incubated overnight in 96-well plates (6 × 10^3 cells/well in 100 μL/well) in the correspondent culture media. Then, the medium was replaced with fresh 10% FBS/RPMI medium containing the investigated compounds (100 μL/well), and cells were incubated for 48 h, unless otherwise stated. Next, 10 μL/well of (3-(4,5-dimethylthiazol-2-yl)-2,5-diphenyltetrazolium bromide) reagent (MTT, 5 mg/mL) was added. After 2–4 h of incubation, the media was aspirated and the plates were dried. Then, 50 μL/well of DMSO was added to each well and the cell viability was measured using an Infinite F200PRO reader (TECAN, Männedorf, Switzerland). Results were calculated using the GraphPad Prism software v.9.1.1 (GraphPad Software, San Diego, CA, USA) and are represented as IC50 of the compounds calculated using the cells treated with the solvent alone as a control.

[2] = tested on: non-cancer cell lines versus cancer cell lines; assay: Selectivity index from MTT IC50s; assay type: cell-based, human; conditions: for Selectivity index, IC50 (non-prostate) / IC50 (prostate): mean IC50 MRC-9 and HEK-293 versus mean IC50 prostate cancer cell lines plus PNT2; for Selectivity index, IC50 (non-prostate) / IC50 (prostate) / Selectivity index, IC50 (non-cancer) / IC50 (cancer): MTT; for Selectivity index, IC50 (non-cancer) / IC50 (cancer): mean IC50 non-cancer cell lines versus mean IC50 cancer cell lines
Protocol: as §4, with “Next, SAR analysis was performed to identify the structural elements that are beneficial for anticancer activity of the fascaplysin-related molecules. Considering the complex and heterogeneous nature of tumors even within the same patient, we used calculated mean IC50 values of each drug in all prostate cancer cells for further analysis (Figure 2A). To identify the drug candidates with the highest therapeutic potential, the selectivity index (SI) was calculated as mean IC50 in non-cancer cells versus mean IC50 in cancer cells (Figure 2B), or as a mean IC50 in non-cancer (MRC-9 and HEK293) cells versus mean IC50 in prostate cells (cancer PC-3, 22Rv1, DU145, LNCaP and non-cancer PNT2 cells) (Figure 2C). Finally, to estimate the effects on cellular metabolism, we compared the activity evaluated by using trypan blue assay versus MTT assay (Figure 2D). Effect” for “Effect”, “2-4” for “2–4”, “F200PRO” left out

HEK-293 cells = assay: MTT assay, HEK-293 cells; assay type: cell-based, human; conditions: Homo sapiens, HEK293; non-cancer cells; 48 h of treatment; mean ± SD
Protocol: as §2, §3, §4

[3] = tested on: double-stranded calf thymus DNA; assay: Thiazole orange displacement (DNA intercalation) assay; assay type: binding; conditions: 1 µM calf thymus DNA base pairs, 2 µM thiazole orange; 7 min at room temperature; mean ± SD
Protocol: DNA intercalation activity of the compounds was calculated as an ability to displace thiazole orange (TO) from the double-stranded DNA. For this experiment, a mixture (100 µL) containing 1 µM of double-stranded calf thymus DNA (recalculated as a concentration of base pairs) and 2 µM of thiazole orange (TO) solved in water was prepared. Then, the investigated compounds were added up to final concentrations of 0.39–25 µM; DMSO concentration in the samples was <0.02%. Propidium iodide (PI, positive control) was added up to final concentrations of 0.039–2.5 uM. After 7 min of incubation at room temperature, TO fluorescence was monitored using a multimodal plate reader TECAN Spark (Tecan Group Ltd., Männedorf Switzerland) at the excitation λ = 480 nm; fluorescence was recorded at λ = 530 nm. The bandwidth was 10 nm. The concentration of the drug that caused a decrease in TO fluorescence by 50% (EC50) was determined by approximating the experimental data using a non-linear regression algorithm and calculated using the GraphPad Prism software v.9.1.1 (GraphPad Software, San Diego, CA, USA).

[4] = tested on: prostate cancer cell lines (PC-3, 22Rv1, DU145 and LNCaP); assay: MTT assay, mean over four prostate cancer cell lines; assay type: cell-based; conditions: Homo sapiens; mean of MTT IC50 in PC-3, 22Rv1, DU145 and LNCaP; from Table S1 values; read-out: mean IC50 in cancer cells
Protocol: as §4, with “Next, SAR analysis was performed to identify the structural elements that are beneficial for anticancer activity of the fascaplysin-related molecules. Considering the complex and heterogeneous nature of tumors even within the same patient, we used calculated mean IC50 values of each drug in all prostate cancer cells for further analysis (Figure 2A). To identify the drug candidates with the highest therapeutic potential, the selectivity index (SI) was calculated as mean IC50 in non-cancer cells versus mean IC50 in cancer cells (Figure 2B), or as a mean IC50 in non-cancer (MRC-9 and HEK293) cells versus mean IC50 in prostate cells (cancer PC-3, 22Rv1, DU145, LNCaP and non-cancer PNT2 cells) (Figure 2C). Finally, to estimate the effects on cellular metabolism, we compared the activity evaluated by using trypan blue assay versus MTT assay (Figure 2D). Effect” for “Effect”, “2-4” for “2–4”, “F200PRO” left out

22Rv1 cells [5] = assay: MTT assay, 22Rv1 cells; assay type: cell-based, human; conditions: Homo sapiens, 22Rv1; prostate cancer cells; 48 h of treatment; mean ± SD
Protocol: as §2, §3, §4

PC-3 cells = assay: MTT assay, PC-3 cells; assay type: cell-based, human; conditions: Homo sapiens, PC-3; prostate cancer cells; 48 h of treatment; mean ± SD
Protocol: as §2, §3, §4

MRC-9 cells = assay: MTT assay, MRC-9 cells; assay type: cell-based, human; conditions: Homo sapiens, MRC9; non-cancer cells; 48 h of treatment; mean ± SD
Protocol: as §2, §3, §4

22Rv1 cells [6] = assay: Trypan blue-based viability assay; assay type: cell-based, human; conditions: Homo sapiens, 48 h of treatment, mean ± SD, read-out: IC50, trypan blue staining assay
Protocol: The effect of the drugs on cell viability in terms of cellular membrane integrity was evaluated by the trypan blue exclusion assay as described before. In brief, cells (0.2 × 10^6 cells/well) were seeded in 6-well plates and incubated overnight, and the media was replaced with fresh media (1 mL/well) containing drugs at indicated concentrations. After treatment for 48 h, the cells were harvested by trypsinization, stained with trypan blue and the viability was measured using an automatic Beckman Coulter Vi-CELL (Beckman Coulter, Krefeld, Germany). Trypan blue-positive cells were assumed to have damaged cellular membrane (i.e., dead), whereas trypan blue-negative cells were considered to have an intact cellular membrane (i.e., alive).

DU145 cells = assay: MTT assay, DU145 cells; assay type: cell-based, human; conditions: Homo sapiens, DU-145; prostate cancer cells; 48 h of treatment; mean ± SD
Protocol: as §2, §3, §4

LNCaP cells = assay: MTT assay, LNCaP cells; assay type: cell-based, human; conditions: Homo sapiens, LNCaP; prostate cancer cells; 48 h of treatment; mean ± SD
Protocol: as §2, §3, §4

22Rv1 cells [7] = assay: Cell cycle progression, flow cytometry with PI staining; assay type: cell-based, human; conditions: treated at IC50 (MTT assay) for 48 h
Protocol: as §1

| Compound | % of sub-G1 apoptotic cells (at IC50) (22Rv1 cells [1]) [%] | IC50 (PNT2 cells) [µM] | Selectivity index, IC50 (non-prostate) / IC50 (prostate) [2] | Selectivity index, IC50 (non-cancer) / IC50 (cancer) [2] | IC50 (HEK-293 cells) [µM] | EC50 [3] [µM] | IC50 [4] [µM] | IC50 (22Rv1 cells [5]) [µM] | IC50 (PC-3 cells) [µM] | IC50 (MRC-9 cells) [µM] | IC50 (22Rv1 cells [6]) [µM] | IC50 (DU145 cells) [µM] | IC50 (LNCaP cells) [µM] | Selectivity index (SI), for Figure 2B,C ([2]; both SI definitions (Figure 2B,C)) | Cell cycle arrest (at IC50) (22Rv1 cells [7]) |
| --- | --- | --- | --- | --- | --- | --- | --- | --- | --- | --- | --- | --- | --- | --- | --- |
| O=C1c2cc(Br)ccc2-[n+]2ccc3c([nH]c4ccccc43)c21.[Cl-] [Compound 4, 12,13-dihydro-2-bromo-13-oxopyrido[1,2-a:3,4-b’]diindol-5-ium chloride] | 8.83±0.7 | 0.82 ± 0.076 | 1.92 | 1.34 | 1.1 ± 0.074 | 1.36 ± 0.03 | 1.55 | 0.529 ± 0.069 | 3.4 ± 1.89 | 4.27 ± 0.662 | 0.26 ± 0.054 | 1.9 ± 0.634 | 0.349 ± 0.081 |  |  |
| O=C1c2ccccc2-[n+]2ccc3c([nH]c4cc(Br)ccc43)c21 [Compound 5, 10-Bromofascaplysin] | 3.63±0.844 | 0.302 ± 0.09 | 2.57 | 1.41 | 0.649 ± 0.078 | 2.01 ± 0.01 | 5.01 | 0.5 ± 0.067 | 17.8 ± 1.94 | 20.3 ± 5.4 | 0.482 ± 0.091 | 1.27 ± 0.206 | 0.46 ± 0.076 |  |  |
| O=C1c2ccccc2-[n+]2ccc3c([nH]c4ccc(I)cc43)c21.[Cl-] [Compound 7, 12,13-dihydro-9-iodo-13-oxopyrido[1,2-a:3,4-b’]diindol-5-ium chloride] | 6.3±0.906 | 0.145 ± 0.066 | 0.89 | 0.53 | 0.809 ± 0.164 | 2.14 ± 0.1 | 1.18 | 0.55 ± 0.071 | 3.67 ± 0.2 | 0.924 ± 0.132 | 0.08 ± 0.004 | 0.319 ± 0.075 | 0.171 ± 0.035 | < 1 |  |
| O=C1c2cc(Br)ccc2-[n+]2ccc3c([nH]c4ccc(Cl)cc43)c21.[Cl-] [Compound 12, 12,13-dihydro-2-bromo-9-chloro-13-oxopyrido[1,2-a:3,4-b’]diindol-5-ium chloride] | 6.95±0.901 | 3.33 ± 0.806 | 3.82 | 2.58 | 0.75 ± 0.065 |  | 5.23 | 2.89 ± 0.89 | 13.2 ± 2.87 | 36.3 ± 9.51 | 1.64 ± 0.85 | 2.08 ± 0.58 | 2.7 ± 0.173 |  | No |
| O=C1c2ccccc2-[n+]2cc(-c3ccccc3)c3c([nH]c4ccccc43)c21.[Cl-] [Compound 16, 12,13-dihydro-7-phenyl-13-oxopyrido[1,2-a:3,4-b’]diindol-5-ium chloride] | 7±1.4 | 0.434 ± 0.021 | 1.73 | 1.73 | 0.538 ± 0.069 | 1.16 ± 0.02 | 0.3 | 0.185 ± 0.039 | 0.391 ± 0.084 | 0.596 ± 0.11 | 0.172 ± 0.074 | 0.491 ± 0.068 | 0.141 ± 0.058 |  |  |
| CCc1c[n+]2c(c3[nH]c4ccccc4c13)C(=O)c1ccccc1-2.[Cl-] [Compound 17, 12,13-dihydro-7-ethyl-13-oxopyrido[1,2-a:3,4-b’]diindol-5-ium chloride] | 13.4±0.92 | 0.49 ± 0.09 | 1.25 | 0.92 | 0.7 ± 0.211 | 1.03 ± 0.03 | 0.95 | 0.271 ± 0.046 | 0.564 ± 0.098 | 1.45 ± 0.645 | 0.375 ± 0.09 | 2.37 ± 0.45 | 0.611 ± 0.047 |  |  |
| Cc1cc2c([nH]c3ccccc32)c2[n+]1-c1ccccc1C2=O.[Cl-] [Compound 19, 12,13-dihydro-6-methyl-13-oxopyrido[1,2-a:3,4-b’]diindol-5-ium chloride] | 14.2±0.567 | 3.25 ± 0.795 | 1.00 | 1.23 | 1.82 ± 0.387 | 0.38 ± 0.02 | 2.18 | 1.59 ± 0.514 | 2.67 ± 0.14 | 2.98 ± 0.93 | 2.03 ± 0.609 | 2.24 ± 0.89 | 2.24 ± 0.81 |  |  |
